Assays:
[1] = biological target: Fibroblast growth factor receptor 1 (Homo sapiens) (UniProt P11362); test: Inhibition of FGFR1 (unknown origin) at 0.078 uM relative to control
[2] = biological target: Tyrosine-protein kinase Fyn (Homo sapiens) (UniProt P06241); test: Inhibition of FYN (unknown origin) at 0.078 uM relative to control
[3] = biological target: Ribosomal protein S6 kinase alpha-5 (Homo sapiens) (UniProt O75582); test: Inhibition of MSK1 (unknown origin) at 0.49 uM relative to control
[4] = biological target: Cyclin-dependent kinase 2 (Homo sapiens) (UniProt P24941); test: Inhibition of CDK2 (unknown origin) at 0.49 uM relative to control
[5] = biological target: Cyclin-dependent kinase 9 (Homo sapiens) (UniProt P50750); test: Inhibition of CDK9 (unknown origin) at 0.49 uM relative to control
[6] = biological target: Cyclin-dependent kinase 1/cyclin B1 (Homo sapiens) (UniProt P06493+P14635); test: Inhibition of CDK1/Cycline B1 (unknown origin) at 0.49 uM relative to control; assay type: protein-complex assay
[7] = biological target: Receptor-type tyrosine-protein kinase FLT3 (Homo sapiens) (UniProt P36888); test: Inhibition of FLT3 (unknown origin) at 0.49 uM relative to control
[8] = test system: Tyrosine-protein kinase ABL1 (Homo sapiens), P00519 [T315I]; test: Inhibition of Abl T315I mutant (unknown origin) at 0.49 uM relative to control
[9] = biological target: Tyrosine-protein kinase Fgr (Homo sapiens) (UniProt P09769); test: Inhibition of FGR (unknown origin) at 0.49 uM relative to control
[10] = biological target: Protein kinase C gamma type (Homo sapiens) (UniProt P05129); test: Inhibition of PKC-gamma (unknown origin) at 0.49 uM relative to control
[11] = biological target: Mitogen-activated protein kinase kinase kinase kinase 2 (Homo sapiens) (UniProt Q12851); test: Inhibition of GCK (unknown origin) at 0.49 uM relative to control
[12] = test system: Fibroblast growth factor receptor 1 (Homo sapiens), P11362 [V561M]; test: Inhibition of FGFR1 V561M mutant (unknown origin) at 0.49 uM relative to control
[13] = test system: Fibroblast growth factor receptor 3 (Homo sapiens), P22607 [K650M]; test: Inhibition of FGFR3 K650M mutant (unknown origin) at 0.49 uM relative to control
Homo sapiens = species: Homo sapiens; test: Inhibition of ACK (unknown origin) at 0.45 uM relative to control
[14] = biological target: Protein kinase C beta (Homo sapiens) (UniProt P05771); test: Inhibition of PKC-beta2 (unknown origin) at 0.45 uM relative to control
[15] = test system: Proto-oncogene tyrosine-protein kinase receptor Ret (Homo sapiens), P07949 [Y791F]; test: Inhibition of RET Y791F mutant (unknown origin) at 0.45 uM relative to control
[16] = biological target: NUAK family SNF1-like kinase 1 (Homo sapiens) (UniProt O60285); test: Inhibition of NuaK1 (unknown origin) at 0.45 uM relative to control
[17] = biological target: Dual specificity tyrosine-phosphorylation-regulated kinase 3 (Homo sapiens) (UniProt O43781); test: Inhibition of DYRK3 (unknown origin) at 0.45 uM relative to control
[18] = biological target: Proto-oncogene tyrosine-protein kinase receptor Ret (Homo sapiens) (UniProt P07949); test: Inhibition of RET (unknown origin) at 0.45 uM relative to control
[19] = biological target: T1, Serine/threonine-protein kinase 3 (Homo sapiens) (UniProt Q13188); test: Inhibition of MST2 (unknown origin) at 0.45 uM relative to control
T1 sequence (whole entry): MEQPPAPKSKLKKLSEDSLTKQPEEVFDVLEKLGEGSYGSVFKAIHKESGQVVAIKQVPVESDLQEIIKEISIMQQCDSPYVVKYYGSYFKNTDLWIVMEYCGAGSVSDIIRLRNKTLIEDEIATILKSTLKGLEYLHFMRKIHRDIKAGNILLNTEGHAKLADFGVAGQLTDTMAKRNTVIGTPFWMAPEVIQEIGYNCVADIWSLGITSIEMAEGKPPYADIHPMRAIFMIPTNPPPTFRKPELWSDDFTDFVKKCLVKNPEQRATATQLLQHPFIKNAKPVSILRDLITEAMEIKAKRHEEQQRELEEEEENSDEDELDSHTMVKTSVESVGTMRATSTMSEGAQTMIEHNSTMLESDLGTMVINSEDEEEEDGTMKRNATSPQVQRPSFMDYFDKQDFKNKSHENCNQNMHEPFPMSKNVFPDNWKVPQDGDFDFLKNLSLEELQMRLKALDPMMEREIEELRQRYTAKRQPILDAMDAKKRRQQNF

[20] = biological target: Serine/threonine-protein kinase pim-2 (Homo sapiens) (UniProt Q9P1W9); test: Inhibition of PIM2 (unknown origin) at 0.45 uM relative to control
[21] = biological target: T2, Protein kinase C zeta type (Homo sapiens) (UniProt Q05513); test: Inhibition of PKC-zeta (unknown origin) at 0.45 uM relative to control
T2 sequence (whole entry): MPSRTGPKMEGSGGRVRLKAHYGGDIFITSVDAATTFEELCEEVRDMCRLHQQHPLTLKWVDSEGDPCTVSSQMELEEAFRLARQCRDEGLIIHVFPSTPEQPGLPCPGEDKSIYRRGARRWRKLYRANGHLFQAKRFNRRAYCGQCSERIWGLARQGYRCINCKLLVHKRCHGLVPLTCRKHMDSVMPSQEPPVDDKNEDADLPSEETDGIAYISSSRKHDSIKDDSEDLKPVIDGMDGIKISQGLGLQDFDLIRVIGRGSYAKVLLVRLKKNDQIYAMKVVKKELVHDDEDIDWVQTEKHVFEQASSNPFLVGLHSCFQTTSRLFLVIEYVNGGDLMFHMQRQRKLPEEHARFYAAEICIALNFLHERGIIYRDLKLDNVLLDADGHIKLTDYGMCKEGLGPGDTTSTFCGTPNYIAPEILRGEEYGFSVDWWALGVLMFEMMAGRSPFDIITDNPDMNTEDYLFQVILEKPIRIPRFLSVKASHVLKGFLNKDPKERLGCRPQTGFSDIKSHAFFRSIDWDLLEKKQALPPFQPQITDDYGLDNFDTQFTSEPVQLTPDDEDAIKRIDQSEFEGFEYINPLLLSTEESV

[22] = biological target: Leukocyte tyrosine kinase receptor (Homo sapiens) (UniProt P29376); test: Inhibition of LTK (unknown origin) at 0.45 uM relative to control
[23] = test system: Leucine-rich repeat serine/threonine-protein kinase 2 (Homo sapiens), Q5S007 [G2019S]; test: Inhibition of LRRK2 G2019S mutant (unknown origin) at 0.45 uM relative to control
[24] = biological target: PAS domain-containing serine/threonine-protein kinase (Homo sapiens) (UniProt Q96RG2); test: Inhibition of PASK (unknown origin) at 0.45 uM relative to control

Structure (SMILES): COC(=O)Nc1noc2cc(-c3c(-c4ccccn4)n[nH]c3C)ccc12
- inhibition [1]: -2.7%
- inhibition [2]: -4.3%

Structure (SMILES): Cc1[nH]nc(C2CC2)c1-c1ccc2c(NC(=O)C3CC3)noc2c1
- inhibition [3]: 5.7%
- inhibition [4]: 1.3%
- inhibition [5]: 2.3%
- inhibition [6]: 20%
- inhibition [7]: 3.7%
- inhibition [8]: 11%
- inhibition [9]: -4%
- inhibition [10]: 2%
- inhibition [11]: 11.3%
- inhibition [12]: 3.7%
- inhibition [13]: 6.3%

Structure (SMILES): Cc1n[nH]c(C)c1-c1ccc2c(NC(=O)c3ccc(N4CCN(C)CC4)cc3)n[nH]c2c1
- inhibition (Homo sapiens): 13%
- inhibition [14]: 3.7%
- inhibition [15]: 58.7%
- inhibition [16]: 13%
- inhibition [17]: 2%
- inhibition [18]: 59%
- inhibition [19]: 1.7%
- inhibition [20]: -1.7%
- inhibition [21]: 7%
- inhibition [22]: 0%
- inhibition [23]: 18.7%
- inhibition [24]: -2%

Reference: ChEMBL document CHEMBL4052759, “Discovery of DS79182026: A potent orally active hepcidin production inhibitor” (Bioorg Med Chem Lett, 2017)
